{"source": "paper PMC4042666", "about": "(Bioorganic & medicinal chemistry letters, 2013)", "key": {"Huh7 cells": {"system": "Huh7 cells", "assay": "Cytotoxicity in Huh7 cells"}, "[1]": {"system": "HCV NS3/4A protease genotype 1b mutant A156T", "assay": "biochemical", "details": "A156T vs wild type"}, "[2]": {"biological_target": "HCV NS3/4A protease genotype 1b mutant A156T (Hepatitis C virus genotype 1b, UniProt Q9WMX2, A1182T)", "assay": "biochemical"}, "[3]": {"system": "HCV NS3/4A protease genotype 1b mutant R155K", "format": "biochemical", "details": "R155K vs wild type"}, "[4]": {"system": "HCV NS3/4A protease genotype 1b mutant A156S", "format": "biochemical", "details": "A156S vs wild type"}, "[5]": {"system": "HCV NS3/4A protease genotype 1b mutant D168V", "format": "biochemical", "details": "D168V vs wild type"}, "[6]": {"system": "HCV Replicon in Huh7 cells", "assay": "Inhibition of HCV RNA replication, subgenomic HCV replicon system in Huh7 cells", "format": "cell-based, Hepatitis C virus"}, "[7]": {"system": "CEM cells (a human-T-cell-derived cell line)", "assay": "Cytotoxicity in CEM cells", "format": "cell-based"}, "[8]": {"system": "HCV NS3/4A protease genotype 1b mutant V170A", "format": "biochemical", "details": "V170A vs wild type"}, "[9]": {"system": "primary human PBM (peripheral blood mononuclear) cells", "assay": "Cytotoxicity in PBM cells", "format": "cell-based"}, "[10]": {"system": "Vero cells (African green monkey kidney epithelial cells)", "assay": "Cytotoxicity in Vero cells", "format": "cell-based"}, "Plasmin": {"biological_target": "Plasmin (Homo sapiens, UniProt P00747)", "sequence (P00747 581-810 limits assumed)": "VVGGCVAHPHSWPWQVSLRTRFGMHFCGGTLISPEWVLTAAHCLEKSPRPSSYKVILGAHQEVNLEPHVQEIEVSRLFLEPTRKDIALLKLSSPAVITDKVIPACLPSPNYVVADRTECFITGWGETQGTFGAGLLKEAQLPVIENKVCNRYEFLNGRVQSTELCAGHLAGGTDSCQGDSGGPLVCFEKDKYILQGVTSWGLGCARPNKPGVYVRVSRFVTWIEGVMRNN", "sequence (P00747 97-580 partner limits assumed)": "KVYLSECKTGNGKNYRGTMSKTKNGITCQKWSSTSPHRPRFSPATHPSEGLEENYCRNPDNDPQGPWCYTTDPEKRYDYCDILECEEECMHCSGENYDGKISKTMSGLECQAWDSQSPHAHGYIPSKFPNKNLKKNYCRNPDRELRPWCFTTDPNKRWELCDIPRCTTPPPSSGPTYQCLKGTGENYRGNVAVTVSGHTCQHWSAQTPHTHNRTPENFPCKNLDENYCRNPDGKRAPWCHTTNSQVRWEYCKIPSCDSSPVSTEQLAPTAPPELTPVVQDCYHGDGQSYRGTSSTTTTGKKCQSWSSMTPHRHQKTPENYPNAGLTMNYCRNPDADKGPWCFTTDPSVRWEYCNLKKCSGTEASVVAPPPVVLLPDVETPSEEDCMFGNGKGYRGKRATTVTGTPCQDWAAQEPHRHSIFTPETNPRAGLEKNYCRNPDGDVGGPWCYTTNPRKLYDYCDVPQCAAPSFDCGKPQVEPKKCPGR", "assay": "Effect on human protease Plasmin", "format": "biochemical", "details": "read-out: Plasmin IC90"}, "Thrombin": {"biological_target": "Thrombin (Homo sapiens, UniProt P00734)", "assay": "Effect on human protease Thrombin", "format": "biochemical"}}}
{"smiles": "CCCC(NC(=O)C1N(C(=O)[C@@H](NC(=O)NC2CCCCC2)C(C)(C)C)CC12Cc1ccccc1C2)C(=O)C(=O)NC1CC1", "note": "(stereo partly drawn) [Compound 41e]", "values": [{"measurement": "Toxicity toward Huh7 cells, in words", "setting": "Huh7 cells", "value": "toxic"}]}
{"smiles": "CC[C@@H]1C[C@]1(NC(=O)[C@@H]1C[C@@H]2CN1C(=O)[C@H](C(C)(C)C)NC(=O)OCC(C)(C)CCCCc1cccc3c1CN(C3)C(=O)O2)C(=O)NS(=O)(=O)C1CC1", "note": "[MK-7009, vaniprevir]", "values": [{"measurement": "Fold Increase (FI) of EC90", "setting": "[1]", "value": "> 77"}, {"measurement": "EC90", "setting": "[2]", "value": "> 1", "unit": "µM"}, {"measurement": "Fold Increase (FI) of EC50", "setting": "[3]", "value": "> 160"}, {"measurement": "Fold Increase (FI) of EC90", "setting": "[3]", "value": "> 77"}, {"measurement": "Fold Increase (FI) of EC50", "setting": "[4]", "value": "< 0.16"}, {"measurement": "Fold Increase (FI) of EC50", "setting": "[5]", "value": "> 160"}, {"measurement": "Fold Increase (FI) of EC90", "setting": "[5]", "value": "> 77"}]}
{"smiles": "CCCC(NC(=O)C1N(C(=O)[C@@H](NC(=O)[C@@H](NC(=O)c2cnccn2)C2CCCCC2)C(C)(C)C)CC12Cc1ccccc1C2)C(=O)C(=O)NC1CC1", "note": "(stereo partly drawn) [Compound 37b]", "values": [{"measurement": "Anti-HCV activity, in words", "setting": "[6]", "value": "complete loss of potency"}]}
{"smiles": "CC(C)(C)[C@H](NC(=O)NC1CCCCC1)C(=O)N1CC2(Cc3ccccc3C2)C1C(=O)NC(CC1CCC1)C(=O)C(=O)NC1CC1", "note": "(stereo partly drawn) [Compound 41f]", "values": [{"measurement": "Toxicity toward Huh7 cells, in words", "setting": "Huh7 cells", "value": "toxic"}]}
{"smiles": "CCCC(NC(=O)C1N(C(=O)[C@@H](NC(=O)[C@@H](NC(=O)c2cnccn2)C2CCCCC2)C(C)(C)C)CC12CCCCC2)C(=O)C(=O)NC1CC1", "note": "(stereo partly drawn) [Compound 37h]", "values": [{"measurement": "Toxicity in CEM cells, in words", "setting": "[7]", "value": "toxicity in the micromolar range"}, {"measurement": "Fold Increase (FI) of EC50", "setting": "[1]", "value": "> 130"}, {"measurement": "Fold Increase (FI) of EC90", "setting": "[1]", "value": "> 10"}, {"measurement": "EC90", "setting": "[2]", "value": "> 100", "unit": "µM"}, {"measurement": "Fold Increase (FI) of EC50", "setting": "[8]", "value": "> 1.2"}, {"measurement": "Toxicity in PBM cells, in words", "setting": "[9]", "value": "toxicity in the micromolar range"}, {"measurement": "Fold Increase (FI) of EC90", "setting": "[4]", "value": "> 10"}, {"measurement": "Toxicity in Vero cells, in words", "setting": "[10]", "value": "toxicity in the micromolar range"}]}
{"smiles": "CCCC(NC(=O)C1CCN1C(=O)[C@@H](NC(=O)[C@@H](NC(=O)c1cnccn1)C1CCCCC1)C(C)(C)C)C(=O)C(=O)NC1CC1", "note": "(stereo partly drawn) [Compound 37d]", "values": [{"measurement": "Anti-HCV activity, in words", "setting": "[6]", "value": "inactive"}]}
{"smiles": "CCC[C@H](NC(=O)[C@@H]1[C@H]2CCC[C@H]2CN1C(=O)[C@@H](NC(=O)[C@@H](NC(=O)c1cnccn1)C1CCCCC1)C(C)(C)C)C(=O)C(=O)NC1CC1", "note": "[Compound 2, telaprevir]", "values": [{"measurement": "Fold Increase (FI) of EC90", "setting": "[1]", "value": "> 130"}, {"measurement": "EC90", "setting": "[2]", "value": "> 100", "unit": "µM"}, {"measurement": "IC90", "setting": "Plasmin", "value": "110 ± 32", "unit": "µM"}]}
{"smiles": "CC(C)(C)NC(=O)N[C@H](C(=O)N1C[C@H]2[C@@H]([C@H]1C(=O)NC(CC1CCC1)C(=O)C(N)=O)C2(C)C)C(C)(C)C", "note": "(stereo partly drawn) [Compound 1, boceprevir]", "values": [{"measurement": "EC90", "setting": "[2]", "value": "> 100", "unit": "µM"}, {"measurement": "Inhibition of thrombin, in words", "setting": "Thrombin", "value": "submicromolar inhibition"}]}
